“And” between values parts separate entries of the source, which are not always exact repeats. Identical values can stand only once.
Columns and labels:
[1] = test system: Staphylococcus epidermidis strains; test: % inhibition of bacterial growth by the MIX and its components; format: cell-based; details: MIX = both
Description: (§1) Antibacterial activity of the peptides used in this work was evaluated as described previously. […] The fractional inhibitory concentration (FIC) index for combinations of two peptides was calculated according to the equation: FIC index = […] = A/MICA + B/MICB , where A and B are the MICs of drug A and drug B in the combination, MICA and MICB are the MICs of drug A and drug B alone, and FICA and FICB are the FICs of drug A and drug B. The FIC indices were interpreted as follows: ≤0.5, synergy; 0.51-4.0, no interaction; > 4.0, antagonism. The growth inhibition percentages of Staphylococcus epidermidis and probiotic strains were assessed under the same conditions.

[2] = test system: Staphylococcus epidermidis strains; test: Antibacterial activity of AMPs (MIC100) and synergism (FIC index); format: cell-based; details: against Staphylococcus epidermidis strains, single agent
Description: as §1, with “antagonism.” for “antagonism. The growth inhibition percentages of Staphylococcus epidermidis and probiotic strains were assessed under the same conditions.”

J774 cells = test: Nitrite (NO2-) formation in J774 cells, Griess reaction; format: cell-based, mouse

“KKYLLPI VGNLLKSLL-NH2 [TB-KK, analogue of the temporin B]” was tested, and the “% inhibition of bacterial growth” value ([1]; strain 2/2, RJI-C 9 μg/ml, TB-KK 6 μg/ml) was 23 ± 0.5%, the “% inhibition of bacterial growth” value ([1]; strain 3/28, RJI-C 9 μg/ml (7.3 μM), TB-KK 6 μg/ml (2.6 μM)) was 19 ± 2% and the “% inhibition of bacterial growth” value ([1]; strain 5/6, RJI-C 9 μg/ml, TB-KK 6 μg/ml) was 10 ± 1%. For the same substance, the “% inhibition of bacterial growth” value ([1]; strain 5/8, RJI-C 9 μg/ml, TB-KK 6 μg/ml) was 21 ± 2%, the “% inhibition of bacterial growth” value ([1]; strain 5/25, RJI-C 9 μg/ml, TB-KK 6 μg/ml) was 21 ± 1% and the “% inhibition of bacterial growth” value ([1]; strain 9/1, RJI-C 9 μg/ml, TB-KK 6 μg/ml) was 26 ± 2%. For the same substance, the “% inhibition of bacterial growth” value ([1]; strain 10/28, RJI-C 9 μg/ml, TB-KK 6 μg/ml) was 4 ± 1%, the “% inhibition of bacterial growth” value ([1]; strain 12/14, RJI-C 9 μg/ml, TB-KK 6 μg/ml) was 20 ± 3% and the “% inhibition of bacterial growth” value ([1]; strain 12/26, RJI-C 9 μg/ml, TB-KK 6 μg/ml) was 14 ± 2%. The MIC100 ([2]; 10^5 CFU/well) was 7 µg/mL, the MIC ([2]; value in brackets) was 3 µM and the “NO2- production of J774 cells” value (J774 cells) was 0.82 ± 0.05 μmol/10^6 cells and 1.25 ± 0.2 μmol/10^6 cells and 1.34 ± 0.2 μmol/10^6 cells. The “NO2- synthesis in LPS-stimulated J774 cells, in words” value (J774 cells) was “reduced NO2^- synthesis”.
